# PubChem BioAssay (NCI)
# Values joined by “and” are separate entries in the source; they are usually repeats but may differ in a detail not shown here. Identical values can stand only once.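 These data come from cells grown in 96-well plates and exposed to compound for 48 hours at five concentrations. GI50: concentration for 50% inhibition of growth. The concentration for full growth arrest is given as TGI.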
# What was measured:
# Assay in all cases: DTP human tumour cell line panel, 48 h
# SF-295 CNS = tested on: SF-295 CNS
# HL-60(TB) leukemia = tested on: HL-60(TB) leukemia
# HOP-92 NSCLC = tested on: HOP-92 NSCLC
# A549 NSCLC = tested on: A549 NSCLC
# K-562 leukemia = tested on: K-562 leukemia
# HOP-62 NSCLC = tested on: HOP-62 NSCLC
# LOX IMVI melanoma = tested on: LOX IMVI melanoma
# KM12 colon = tested on: KM12 colon
# SR leukemia = tested on: SR leukemia
# IGROV1 ovarian = tested on: IGROV1 ovarian
SMILES,GI50 (SF-295 CNS),TGI (SF-295 CNS),GI50 (HL-60(TB) leukemia),TGI (HL-60(TB) leukemia),GI50 (HOP-92 NSCLC),TGI (HOP-92 NSCLC),GI50 (A549 NSCLC),TGI (A549 NSCLC),GI50 (K-562 leukemia),TGI (K-562 leukemia) [µM],GI50 (HOP-62 NSCLC),TGI (HOP-62 NSCLC) [µM],GI50 (LOX IMVI melanoma),TGI (LOX IMVI melanoma),GI50 (KM12 colon),TGI (KM12 colon) [µM],GI50 (SR leukemia),TGI (SR leukemia),GI50 (IGROV1 ovarian),TGI (IGROV1 ovarian)
CC(=O)O[C@H]1[C@@H]2OC(=O)C(CSc3ccccc3)[C@@H]2C[C@H]2O[C@]2(C)CC/C=C(\C)CCC[C@@H]1C (stereo partly drawn),3.73 µM,34.6 µM,1.4 µM,4.69 µM,1.74 µM,5.43 µM,4.34 µM,21.4 µM,2.15 µM,> 24.6,9.29 µM,32.5,3.22 µM,13.9 µM,3.58 µM,14,1.69 µM,> 20.1 µM,3.05 µM,9.38 µM
Cc1cc(N2CCOCC2)nc(N(CCCNc2ccnc3cc(Cl)ccc23)Cc2ccco2)n1,1.67 µM,6.23 µM,1.87 µM,4.55 µM,1.56 µM,7.77 µM,3.77 µM,13.6 µM,1.33 µM,11.7,1.73 µM,6,1.58 µM,3.81 µM,2.7 µM,12.8,1.42 µM,5.28 µM,2.18 µM,11.3 µM
CN(CC(=O)Nc1nc2ccccc2[nH]1)S(=O)(=O)c1ccc(Cl)cc1,,,> 100 µM,> 100 µM,> 100 µM,> 100 µM,> 100 µM,> 100 µM,> 100 µM,> 100,> 100 µM,> 100,> 100 µM,> 100 µM,> 100 µM,> 100,> 100 µM,> 100 µM,21 µM,> 100 µM
OCCNc1nc(Nc2ccc(Cl)c(Cl)c2)nc2ccccc12,6.1 µM,20.2 µM,8.69 µM,33.4 µM,2.05 µM,7.51 µM,4.2 µM,18 µM,3.09 µM,10.8,5.39 µM,19.5,3.38 µM,11.9 µM,4.19 µM,16.2,2.65 µM,9.67 µM,5.14 µM,20 µM
Cc1ccc(C(=O)/C(=C\c2ccc([N+](=O)[O-])cc2)S(=O)Cc2ccc(Cl)cc2)cc1 (stereo not drawn),1.8 µM,4.28 µM,2.47 µM,6.82 µM,1.64 µM,3.45 µM,3.05 µM,11 µM,,,2.39 µM,6.21,1.55 µM,3.04 µM,2.33 µM,6.2,1.13 µM,10.1 µM,1.77 µM,3.45 µM
CC1(N)CCN(c2cnc(-c3cccc(Cl)c3Cl)c(N)n2)CC1,11.1 µM,27.2 µM,41.9 µM,> 100 µM,0.553 µM,5.44 µM,16.6 µM,> 100 µM,,,4.28 µM,61.5,15.3 µM,30 µM,7.13 µM,> 100,7.6 µM,80 µM,6.48 µM,> 100 µM
COc1cc(C2=N/C(=C/c3cccs3)C(=O)O2)cc(OC)c1OC,,> 100 µM,,> 100 µM,,> 100 µM,,> 100 µM,,> 100,,> 100,,> 100 µM,,> 100,,> 100 µM,,> 100 µM
O=C(Nc1cccc(Cl)c1)c1cccc(NC2=C(Cl)C(=O)N(Cc3ccccc3)C2=O)c1,44.1 µM,> 100 µM,12.6 µM,31.8 µM,16.1 µM,> 100 µM,> 100 µM,> 100 µM,0.662 µM,35.5,0.84 µM,42.8,28.3 µM,> 100 µM,28.2 µM,80.4,2.32 µM,10.5 µM,3.12 µM,9.81 µM
COc1ccc2c(c1)C(=O)/C(=C/c1ccc([N+](=O)[O-])o1)O2,2.35 µM,9.89 µM,1.74 µM,4.19 µM,0.793 µM,2.79 µM,2.68 µM,> 22.8 µM,,,1.82 µM,4.09,1.4 µM,2.86 µM,1.65 µM,3.11,0.198 µM,1.23 µM,1.02 µM,3.58 µM
CC(C(N)C(=O)NC(C(=O)O)C1OC(n2ccc(=O)[nH]c2=O)C(O)C1O)C(O)c1ccc(O)cn1 (stereo not drawn),,> 100 µM,,> 100 µM,,> 100 µM,,> 100 µM,,,,> 100,,> 100 µM,,> 100,,> 100 µM,,> 100 µM
CC(=O)O[C@H](C[C@H](C(C)C)N(C)C(=O)[C@@H](NC(=O)[C@H]1CCCN1C)C(C)C)c1nc(C(=O)N[C@@H](Cc2ccccc2)C[C@H](C)C(=O)O)c(C)s1,< 0.00167 µM,> 16.7 µM,< 0.00167 µM,< 0.00167 µM,12.4 µM,> 16.7 µM,0.0155 µM,> 16.7 µM,< 0.00167 µM,> 16.7,< 0.00167 µM,> 16.7,< 0.00167 µM,> 16.7 µM,< 0.00167 µM,> 16.7,< 0.00167 µM,> 16.7 µM,0.00241 µM,> 16.7 µM
CC1=C(C(=O)Nc2cc(Cl)c3[nH]ncc3c2)C(c2ccc(C(F)(F)F)cc2)CC(=O)N1 (stereo not drawn),8.6 µM,> 25 µM,> 21.2 µM,> 25 µM,0.145 µM,> 25 µM,> 25 µM,> 25 µM,> 25 µM,> 25,5.07 µM,> 25,> 20.4 µM,> 25 µM,20 µM,> 25,> 7.84 µM,> 25 µM,> 25 µM,> 25 µM
COc1ccc2oc(C(=O)O)c3c2c1CCC3CCC(=O)O (stereo not drawn),,> 100 µM,,> 100 µM,,> 100 µM,,> 100 µM,,> 100,,> 1,,> 100 µM,,> 100,,> 100 µM,,> 100 µM
CCOC(=O)C#Cc1c(C(=O)OCC)nnn1Cc1ccc([N+](=O)[O-])cc1,18.9 µM,38.1 µM,1.62 µM,5.62 µM,2.22 µM,5.35 µM,20.6 µM,34.8 µM,1.32 µM,10.7,17.3 µM,31.6,0.949 µM,2.29 µM,10.2 µM,24.1,1.15 µM,4.4 µM,11.9 µM,28.5 µM
CSC(=S)OC1CC(n2cnc3c(NC(=O)c4ccccc4)ncnc32)OC1CO[Si](C)(C)C(C)(C)C (stereo not drawn),,> 56.2 µM,,32.6 µM,,44.4 µM,,> 100 µM,,> 49.5,,46,,47.2 µM,,41.6,,> 50 µM,,44.2 µM
C/C=C(\CCOS(=O)(=O)c1ccc(C)cc1)[Si](C)(C)C,,> 100 µM,,> 100 µM,,> 100 µM,,> 100 µM,,> 100,,,,> 100 µM,,> 100,,> 100 µM,,> 100 µM
C/C(=N\NC(=S)SCc1ccccc1)c1ccccn1,,9.26 µM,,1.04 µM,,2.14 µM,,20.5 µM,,2.95,,,,9.56 µM,,16.1,,1.77 µM,,30.2 µM
COc1cc2nccc(Oc3ccc(NC(=O)Nc4cc(C)on4)c(Cl)c3)c2cc1OC,2.08 µM and 3.08 µM,14 µM and > 10 µM,3.35 µM and 3.2 µM,11.8 µM and > 10 µM,2.58 µM and 0.911 µM,6.27 µM and 3.44 µM,3.15 µM and 4.31 µM,19.1 µM and > 10 µM,0.0349 µM and 0.0609 µM,> 100,5.58 µM and > 10 µM,> 100,2.21 µM and 2.19 µM,8.14 µM and > 10 µM,0.178 µM and 0.25 µM,> 66.6,2.62 µM and 3.86 µM,34.4 µM and > 10 µM,2.51 µM and 2.85 µM,8.36 µM and > 10 µM
Cc1cc2c(C(N)=O)c(N)n(-c3c(C)ccc(O)c3C)c2nc1C,0.871 µM,35.4 µM,4.4 µM,> 100 µM,1 µM,14.1 µM,4.53 µM,47.4 µM,2 µM,> 100,13 µM,> 100,1.5 µM,4.85 µM,4.54 µM,> 100,2.47 µM,> 100 µM,3.04 µM,12 µM
C=C1C(=O)O[C@H]2[C@H]1CC/C(COC(=O)C(C)c1ccc(CC(C)C)cc1)=C\CC[C@@]1(C)O[C@@H]21 (stereo partly drawn),2.47 µM,7.39 µM,0.647 µM,2.68 µM,0.747 µM,2.14 µM,1.8 µM,3.65 µM,0.359 µM,1.96,1.88 µM,4.26,1.54 µM,3.01 µM,1.79 µM,3.69,0.287 µM,1.86 µM,1.07 µM,2.33 µM
O=C1C2CCN(CC2)C1(CO)CO,,> 100 µM,,> 78.6 µM,,46.6 µM,,> 100 µM,,54.5,,> 100,,36 µM,,> 93.2,,55.3 µM,,> 100 µM
O=C(N/N=C/c1ccc(O)cc1O)c1cccc(Nc2ccnc(C(F)(F)F)c2)c1,1.88 µM,45.8 µM,0.472 µM,2.98 µM,3.44 µM,> 48.2 µM,6.44 µM,> 72 µM,0.587 µM,19.4,0.709 µM,24.7,0.501 µM,12.5 µM,2.73 µM,16.2,0.29 µM,6.34 µM,1.28 µM,27.7 µM
NS(=O)(=O)c1ccc(N(/C=C/C(=O)C(F)(F)F)Cc2ccc(Cl)cc2)cc1,35.1 µM,> 100 µM,39 µM,78.3 µM,16.1 µM,40.9 µM,27.7 µM,> 100 µM,38.9 µM,> 100,20 µM,53.8,21.8 µM,42.9 µM,22.7 µM,74.5,20.5 µM,43.5 µM,,
[N-]=[N+]=NCCCn1c2c(c3ccc([N+](=O)[O-])cc3c1=O)C(=O)c1cc(F)ccc1-2,0.338 µM,9.94 µM,0.202 µM,1.64 µM,,,5.14 µM,> 100 µM,1.25 µM,> 100,0.32 µM,7.04,0.343 µM,1.86 µM,2.13 µM,> 26.2,0.113 µM,2.86 µM,2.3 µM,> 30.2 µM
Fc1cccc(-n2ccc(-c3ccccc3)nc2=S)c1,44.1 µM,> 82.6 µM,94 µM,> 100 µM,0.862 µM,41.6 µM,31.5 µM,> 87.3 µM,43 µM,> 100,> 63.4 µM,> 100,16.1 µM,29.5 µM,18.6 µM,42.8,53.6 µM,> 100 µM,25.5 µM,> 62.2 µM
CC1(C)NCCC[C@]2(C)[C@H]3CC[C@@H]4[C@H]5[C@H](C(=O)/C=C/c6ccccn6)CC[C@]5(CO)CC[C@@]4(C)[C@]3(C)CC[C@@H]12,1.82 µM,3.47 µM,1.84 µM,4.7 µM,1.99 µM,7.73 µM,2.88 µM,11.2 µM,2.19 µM,> 100,6.23 µM,29.4,,,2.07 µM,4.27,1.81 µM,6.27 µM,,
CC(=O)O[C@@]1(C)[C@@H](C)C(=O)O[C@@H]2CCN3CC=C(COC(=O)[C@]1(C)O)[C@H]23,,,,> 100 µM,,> 100 µM,,> 100 µM,,> 100,,> 100,,,,> 100,,> 100 µM,,> 100 µM
Cn1c(N)nc(=O)c2c1N(C1OC(CO)C(O)C1O)CN2Cc1ccccc1 (stereo not drawn),,> 100 µM,,> 100 µM,,> 100 µM,,> 100 µM,,> 100,,> 100,,,,> 100,,> 100 µM,,> 100 µM
